Reference: patent US7550485B2, “Substituted N-heterocycle derivatives and methods of their use” (Wyeth, priority 2003, dated 2009)
Where a name gives a salt, the structure may show the parent alone.

Biological target: T1, hNET (Homo sapiens, UniProt P23975)
T1 construct: expressed in transfected cells
Assay: Norepinephrine (NE) uptake assay in MDCK-Net6 cells stably transfected with human hNET
Type: cell-based
Conditions: [3H]NE uptake; for inhibition at 1 µM: MDCK-Net6, 1 μM test compound; for EC50: test range 1 to 10,000 nM
Procedure: MDCK-Net6 cells, stably transfected with human hNET (Pacholczyk, T., R. D. Blakely, and S. G. Amara, Nature, 1991, 350(6316): p. 350-4) were cultured in growth medium containing high glucose DMEM (Gibco, Cat. No. 11995), 10% FBS (dialyzed, heat-inactivated, US Bio-Technologies, Lot FBD1129HI) and 500 μg/ml G418 (Gibco, Cat. No. 10131). Cells were plated at 300,000/T75 flask and cells were split twice weekly. The JAR cell line (human placental choriocarcinoma) was purchased from ATCC (Cat. No. HTB-144). The cells were cultured in growth medium containing RPMI 1640 (Gibco, Cat. No. 72400), 10% FBS (Irvine, Cat. No. 3000), 1% sodium pyruvate (Gibco, Cat. No. 1136) and 0.25% glucose. Cells were plated at 250,000 cells/T75 flask and split twice weekly. For all assays, cells were plated in Wallac 96-well sterile plates (PerkinElmer, Cat. No. 3983498).
Norepinephrine (NE) Uptake Assay
On day 1, cells were plated at 3,000 cells/well in growth medium and maintained in a cell incubator (37° C., 5% CO2). On day 2, growth medium was replaced with 200 μl of assay buffer (25 mM HEPES; 120 mM NaCl; 5 mM KCl; 2.5 mM CaCl2; 1.2 mM MgSO4; 2 mg/ml glucose (pH 7.4, 37° C.)) containing 0.2 mg/ml ascorbic acid and 10 μM pargyline. Plates containing cells with […] of assay buffer were equilibrated for 10 minutes at 37° C. prior to addition of compounds. A stock solution of desipramine was prepared in DMSO (10 mM) and delivered to triplicate wells containing cells for a final test concentration of 1 μM. Data from these wells were used to define non-specific NE uptake (minimum NE uptake). Test compounds were prepared in DMSO (10 mM) and diluted in assay buffer according to test range (1 to 10,000 nM). Twenty-five microliters of assay buffer (maximum NE uptake) or test compound were added directly to triplicate wells containing cells in 200 μl of assay buffer. The cells in assay buffer with test compounds were incubated for 20 minutes at 37° C. To initiate the NE uptake, [^3H]NE diluted in assay buffer (120 nM final assay concentration) was delivered in 25 μl aliquots to each well and the plates were incubated for 5 minutes (37° C.). The reaction was terminated by decanting the supernatant from the plate. The plates containing cells were washed twice with 200 μl assay buffer (37° C.) to remove free radioligand. The plates were then inverted, left to dry for 2 minutes, then reinverted and air-dried for an additional 10 minutes. The cells were lysed in 25 μl of 0.25 N NaOH solution (4° C.), placed on a shake table and vigorously shaken for 5 minutes. After cell lysis, 75 μl of scintillation cocktail was added to each well and the plates were sealed with film tape. The plates were returned to the shake table and vigorously shaken for a minimum of 10 minutes to ensure adequate partitioning of organic and aqueous solutions. The plates were counted in a Wallac Microbeta counter (PerkinElmer) to collect the raw cpm data.
For each experiment, a data stream of cpm values collected from the Wallac Microbeta counter was downloaded to a Microsoft Excel statistical application program. Calculations of EC50 values were made using the transformed-both-sides logistic dose response program written by Wyeth Biometrics Department. The statistical program uses mean cpm values from wells representing maximum binding or uptake (assay buffer) and mean cpm values from wells representing minimum binding or uptake ((1 μM desipramine (hNET) or 1 μM paroxetine (hSERT)). Estimation of the EC50 value was completed on a log scale and the line was fit between the maximum and minimum binding or uptake values. All graphic data representation was generated by normalizing each data point to a mean percent based on the maximum and minimum binding or uptake values. The EC50 values reported from multiple experiments were calculated by pooling the raw data from each experiment and analyzing the pooled data as one experiment.

T1 sequence (P23975 whole entry): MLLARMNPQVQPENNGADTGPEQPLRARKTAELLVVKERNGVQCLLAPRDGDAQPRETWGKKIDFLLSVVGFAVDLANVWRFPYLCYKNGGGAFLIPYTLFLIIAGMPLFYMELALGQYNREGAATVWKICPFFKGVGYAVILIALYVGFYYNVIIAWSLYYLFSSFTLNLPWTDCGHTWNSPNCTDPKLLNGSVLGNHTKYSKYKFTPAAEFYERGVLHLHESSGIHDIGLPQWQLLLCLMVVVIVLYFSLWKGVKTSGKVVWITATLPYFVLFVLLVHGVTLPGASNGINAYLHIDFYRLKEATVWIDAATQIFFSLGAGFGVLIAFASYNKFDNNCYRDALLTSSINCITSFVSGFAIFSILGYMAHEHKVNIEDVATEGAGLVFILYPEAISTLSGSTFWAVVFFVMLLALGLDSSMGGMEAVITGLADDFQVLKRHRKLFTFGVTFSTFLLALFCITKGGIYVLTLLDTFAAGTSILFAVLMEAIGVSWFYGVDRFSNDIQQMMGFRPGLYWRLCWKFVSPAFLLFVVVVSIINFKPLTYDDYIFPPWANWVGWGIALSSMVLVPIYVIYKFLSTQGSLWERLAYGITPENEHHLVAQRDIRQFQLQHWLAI

SMILES | inhibition at 1 µM [%] | EC50 [nM] | inhibition at 30 µM (MDCK-Net6, 30 μM test compound (stated in cell)) [%] | inhibition at 10 µM (MDCK-Net6, 10 μM test compound (stated in cell)) [%]
OC1(C(CN2CCC(N3CCCC3)CC2)c2ccc(Cl)c(Cl)c2)CCCCC1 (stereo not drawn) [Example 11, 1-[1-(3,4-dichlorophenyl)-2-(4-pyrrolidin-1-ylpiperidin-1-yl)ethyl]cyclohexanol dihydrochloride] | 91 | 260 | – | –
CN(C)C1CCN(CC(c2cccc(Br)c2)C2(O)CCCCC2)CC1 (stereo not drawn) [Example 319, 1-{1-(3-bromophenyl)-2-[4-(dimethylamino)piperidin-1-yl]ethyl}cyclohexanol dihydrochloride] | 95.4 | – | – | –
COc1ccc(C(CN2CCC(N3CCCC3)CC2)C2(O)CCCCC2)cc1Br (stereo not drawn) [Example 9, 1-[1-(3-bromo-4-methoxyphenyl)-2-(4-pyrrolidin-1-ylpiperidin-1-yl)ethyl]cyclohexanol dihydrochloride] | 93 | 180 | – | –
CNC1CCN(CC(c2ccc(OC)c(Br)c2)C2(O)CCCCC2)CC1 (stereo not drawn) [Example 29, 1-{1-(3-bromo-4-methoxyphenyl)-2-[4-(methylamino)piperidin-1-yl]ethyl}cyclohexanol dihydrochloride] | 79 | 150 | – | –
CN[C@H]1CCN(CC(c2ccc(OCc3ccccc3)cc2)C2(O)CCCCC2)C1 (stereo partly drawn) [Example 212, 1-{1-[4-(benzyloxy)phenyl]-2-[(3S)-3-(methylamino)pyrrolidin-1-yl]ethyl}cyclohexanol dihydrochloride] | 84.8 | – | – | –
N[C@H]1CCN(CC(c2cccc(Cl)c2)C2(O)CCCCC2)C1 (stereo partly drawn) [Example 16, 1-[2-[(3S)-3-aminopyrrolidin-1-yl]-1-(3-chlorophenyl)ethyl]cyclohexanol dihydrochloride] | 89 | 120 | – | –
CN[C@@H]1CCN(CC(c2ccc(OCc3ccccc3)c(Cl)c2)C2(O)CCCCC2)C1 (stereo partly drawn) [Example 385, 1-{1-[4-(benzyloxy)-3-chlorophenyl]-2-[(3R)-3-(methylamino)pyrrolidin-1-yl]ethyl}cyclohexanol dihydrochloride] | 65 | 270 | – | –
COc1ccc2cc(C(CN3CCC(N4CCCC4)CC3)C3(O)CCCCC3)ccc2c1 (stereo not drawn) [Example 345, 1-[1-(6-methoxy-2-naphthyl)-2-(4-pyrrolidin-1-ylpiperidin-1-yl)ethyl]cyclohexanol dihydrochloride] | 65 | 530 | – | –
CN[C@H]1CCN(CC(c2ccc3ccccc3c2)C2(O)CCCCC2)C1 (stereo partly drawn) [Example 203, 1-[2-[(3S)-3-(methylamino)pyrrolidin-1-yl]-1-(2-naphthyl)ethyl]cyclohexanol dihydrochloride] | 59.2 | – | – | –
CN[C@H]1CCN(CC(c2cccc3ccccc23)C2(O)CCCCC2)C1 (stereo partly drawn) [Example 206, 1-[2-[(3S)-3-(methylamino)pyrrolidin-1-yl]-1-(1-naphthyl)ethyl]cyclohexanol dihydrochloride] | 19.2 | – | – | –
N[C@@H]1CCN(CC(c2cccc(Cl)c2)C2(O)CCCCC2)C1 (stereo partly drawn) [Example 201, 1-[2-[(3R)-3-aminopyrrolidin-1-yl]-1-(3-chlorophenyl)ethyl]cyclohexanol dihydrochloride] | 37.5 | – | – | –
CNC1CCN(CC(c2ccc(Cl)c(Cl)c2)C2(O)CCCCC2)CC1 (stereo not drawn) [Example 13, 1-{1-(3,4-dichlorophenyl)-2-[4-(methylamino)piperidin-1-yl]ethyl}cyclohexanol dihydrochloride] | 89 | 210 | – | –
CN(C)C1CCN(CC(c2ccc(Cl)c(Cl)c2)C2(O)CCCCC2)CC1 (stereo not drawn) [Example 320, 1-{1-(3,4-dichlorophenyl)-2-[4-(dimethylamino)piperidin-1-yl]ethyl}cyclohexanol dihydrochloride] | 88.1 | – | – | –
CN(C)C1CCN(CC(c2ccc(OCc3ccc4ccccc4c3)c(Cl)c2)C2(O)CCCCC2)CC1 (stereo not drawn) [Example 431, 1-{1-[3-chloro-4-(2-naphthylmethoxyl)phenyl]-2-[4-(dimethylamino)piperidin-1-yl]ethyl}cyclohexanol dihydrochloride] | 79 | 54 | – | –
CN(C)[C@@H]1CCN(CC(c2cccc(C(F)(F)F)c2)C2(O)CCCCC2)C1 (stereo partly drawn) [Example 225, 1-{2-[(3R)-3-(dimethylamino)pyrrolidin-1-yl]-1-[3-(trifluoromethyl)phenyl]ethyl}cyclohexanol dihydrochloride] | 84 | – | – | –
OC1(C(CN2CCC(N3CCCC3)CC2)c2ccc3ccccc3c2)CCCCC1 (stereo not drawn) [Example 31, 1-[1-(2-naphthyl)-2-(4-pyrrolidin-1-ylpiperidin-1-yl)ethyl]cyclohexanol dihydrochloride] | 70 | 50 | – | –
NC1CCN(CC(c2ccc3ccccc3c2)C2(O)CCCCC2)CC1 (stereo not drawn) [Example 32, 1-[2-(4-aminopiperidin-1-yl)-1-(2-naphthyl)ethyl]cyclohexanol dihydrochloride] | 69 | 170 | – | –
COC1CCN(CC(c2ccc(OCc3ccccc3)c(Cl)c2)C2(O)CCCCC2)CC1 (stereo not drawn) [Example 339, 1-[1-[4-(benzyloxy)-3-chlorophenyl]-2-(4-methoxypiperidin-1-yl)ethyl]cyclohexanol hydrochloride] | – | – | 94 | –
CNC1CCN(CC(c2cccc(Cl)c2)C2(O)CCCCC2)CC1 (stereo not drawn) [Example 17, 1-{1-(3-chlorophenyl)-2-[4-(methylamino)piperidin-1-yl]ethyl}cyclohexanol dihydrochloride] | 88 | 91 | – | –
NC1CCN(CC(c2cccc(C(F)(F)F)c2)C2(O)CCCCC2)CC1 (stereo not drawn) [Example 39, 1-{2-(4-aminopiperidin-1-yl)-1-[3-(trifluoromethyl)phenyl]ethyl}cyclohexanol dihydrochloride] | 56 | – | – | –
CN(C)[C@@H]1CCN(CC(c2cccc(Cl)c2)C2(O)CCCCC2)C1 (stereo partly drawn) [Example 202, 1-{1-(3-chlorophenyl)-2-[(3R)-3-(dimethylamino)pyrrolidin-1-yl]ethyl}cyclohexanol dihydrochloride] | 74.3 | – | – | –
CN(C)[C@H]1CCN(CC(c2cccc(OC(F)(F)F)c2)C2(O)CCCCC2)C1 (stereo partly drawn) [Example 217, 1-{2-[(3S)-3-(dimethylamino)pyrrolidin-1-yl]-1-[3-(trifluoromethoxy)phenyl]ethyl}cyclohexanol dihydrochloride] | – | – | – | 84.2
COc1ccc(C(CN2CCC(N3CCCCC3)CC2)C2(O)CCCCC2)cc1Br (stereo not drawn) [Example 8, 1-[2-(1,4′-bipiperidin-1′-yl)-1-(3-bromo-4-methoxyphenyl)ethyl]cyclohexanol dihydrochloride] | 95 | 140 | – | –
NC1CCN(CC(c2cccc3ccccc23)C2(O)CCCCC2)CC1 (stereo not drawn) [Example 54, 1-[2-(4-aminopiperidin-1-yl)-1-(1-naphthyl)ethyl]cyclohexanol dihydrochloride] | 39 | – | – | –
CN(C)C1CCN(CC(c2cccc(Cl)c2)C2(O)CCCCC2)CC1 (stereo not drawn) [Example 36, 1-{1-(3-chlorophenyl)-2-[4-(dimethylamino)piperidin-1-yl]ethyl}cyclohexanol dihydrochloride] | 57 | 130 | – | –
CNC1CCN(CC(c2cccc(Cl)c2)C2CCCCC2)CC1 (stereo not drawn) [Example 232, 1-[2-(3-chlorophenyl)-2-cyclohexylethyl]-N-methylpiperidin-4-amine dihydrochloride] | 79.1 | – | – | –
